Relative viability data for 1 cell line are collected here from the supplement of paper PMC10307832.

What all share (test): relative viability (nuclei count vs DMSO), 5 days (fraction); higher = more cells survive
Compound in the test “RU-SKI 43 + Foretinib”: CC[C@@H](C)CNCC(=O)N1CCC2=C([C@@H]1COC3=CC=CC(=C3)C)C=CS2 [RU-SKI 43] + COc1cc2c(Oc3ccc(NC(=O)C4(C(=O)Nc5ccc(F)cc5)CC4)cc3F)ccnc2cc1OCCCN1CCOCC1 [Foretinib] (partner 0.25 µM)
Put shortly:
(§1)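 For relative viability, nuclei counts in treated wells were divided by those in vehicle wells. Lung cancer cell lines had been pin-tool dosed in 1536-well plates the day after seeding and cultured for 5 days, then fixed and stained in one step (final 0.05% Triton X-100, 1% formaldehyde, 1 ug/ml Hoechst) and imaged at 4×. Doses were one drug alone or a fixed anchor-drug dose plus five library-drug doses (not always all listed) in √10 steps, and values are duplicate-plate medians.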

Compound in the test “Irinotecan + Phenformin”: CCc1c2c(nc3ccc(OC(=O)N4CCC(N5CCCCC5)CC4)cc13)-c1cc3c(c(=O)n1C2)COC(=O)[C@]3(O)CC [Irinotecan] + N=C(N)NC(=N)NCCc1ccccc1 [Phenformin] (partner 250 µM)
In short, it runs like this:
as §1

Compound in the test “MK-8033 + Lapatinib”: Cn1cc(-c2cnc3ccc4ccc(CS(=O)(=O)NCc5ccccn5)cc4c(=O)c3c2)cn1 [MK-8033] + CS(=O)(=O)CCNCc1ccc(-c2ccc3ncnc(Nc4ccc(OCc5cccc(F)c5)c(Cl)c4)c3c2)o1 [Lapatinib] (partner 2 µM)
Put shortly:
as §1

Compound in the test “MK-8033 + Crizotinib”: Cn1cc(-c2cnc3ccc4ccc(CS(=O)(=O)NCc5ccccn5)cc4c(=O)c3c2)cn1 [MK-8033] + C[C@@H](Oc1cc(-c2cnn(C3CCNCC3)c2)cnc1N)c1c(Cl)ccc(F)c1Cl [Crizotinib] (partner 1 µM)
In short, it runs like this:
as §1

Consider UMC-11, for which the relative viability amounted to 1.07 with RU-SKI 43 + Foretinib (first compound 0.1 µM); 1.14 with RU-SKI 43 + Foretinib (first compound 0.3162 µM); 1.05 in the test with RU-SKI 43 + Foretinib (first compound 1 µM); 1.14 with RU-SKI 43 + Foretinib (first compound 3.162 µM); 1.03 with RU-SKI 43 + Foretinib (first compound 10 µM); 0.294 in the test with Irinotecan + Phenformin (first compound 0.6325 µM). Moreover, the relative viability is 0.235 with Irinotecan + Phenformin (first compound 2 µM); 0.196 with Irinotecan + Phenformin (first compound 6.325 µM); 0.189 with Irinotecan + Phenformin (first compound 20 µM); 1.02 in the test with MK-8033 + Lapatinib (first compound 0.02 µM); 0.522 with MK-8033 + Lapatinib (first compound 0.06325 µM); 0.866 in the test with MK-8033 + Lapatinib (first compound 0.2 µM). For the same cell line, the relative viability turned out to be 1.04 with MK-8033 + Lapatinib (first compound 0.6325 µM); 0.944 with MK-8033 + Lapatinib (first compound 2 µM); 0.737 in the test with MK-8033 + Crizotinib (first compound 0.02 µM); 0.459 in the test with MK-8033 + Crizotinib (first compound 0.06325 µM); 0.734 in the test with MK-8033 + Crizotinib (first compound 0.2 µM); 0.678 in the test with MK-8033 + Crizotinib (first compound 0.6325 µM). In addition, the relative viability with MK-8033 + Crizotinib (first compound 2 µM) stood at 0.697.
